Experimental data published in patent US4194009A, “Aryloxyphenylpropylamines for obtaining a psychotropic effect” (Eli Lilly and Company, priority 1976, dated 1980).

What follows are molecules tested on norepinephrine uptake by synaptosomes from rat brain (assay: blockage of norepinephrine uptake by synaptosomes from rat brain). Settings: Table 1, norepinephrine 0.48 μM.
Format: biochemical
Excerpt: (§1) This blockade is shown both in vitro with radioactive labelled compounds to determine the amount of monoamine uptake by synaptosomes from rat brain, and in vivo by a variety of methods. Among the physiologically active monoamines whose uptake is blocked by the compounds of this invention are included serotonin, norepinephrine and dopamine (3,4-dihydroxyphenylethylamine). […] Tables 1 and 2 which follow set forth the results of some of the in vitro determinations of the blockage of monoamine uptake by the compounds of this invention. In the tables, column 1 gives the R substituent on the 3-phenylpropylamine and columns 2-4, the concentration in micrograms per ml. that blocks the uptake of a particular amine by 50 percent for the amines--norephinephrine, serotonin, and dopamine. At the head of each column is given the concentration of the particular monoamine used in the experiment.
In the case of `Cc1cccc(OC(CCN(C)C)c2ccccc2)c1` (stereo not drawn) [m-tolyl, N,N-dimethyl 3-phenyl-3-(m-tolyloxy)propylamine], the “Concentration in mcg./ml. that blocks 50% of amine uptake, Norepinephrine” value is reported as 12 µg/mL. In the case of `CN(C)CCC(Oc1ccccc1Cl)c1ccccc1` (stereo not drawn) [o-chlorophenyl, N,N-dimethyl 3-(o-chlorophenoxy)-3-phenylpropylamine], the “Concentration in mcg./ml. that blocks 50% of amine uptake, Norepinephrine” value is reported as “.45 µg/mL”. `COc1cccc(OC(CCN(C)C)c2ccccc2)c1` (stereo not drawn) [m-methoxyphenyl, N,N-dimethyl 3-phenyl-3-(m-methoxyphenoxy)propylamine] was tested, and the “Concentration in mcg./ml. that blocks 50% of amine uptake, Norepinephrine” value was “.2 µg/mL”. `CN(C)CCC(Oc1cccc(C(F)(F)F)c1)c1ccccc1` (stereo not drawn) [m-trifluoromethylphenyl, N,N-dimethyl 3-phenyl-3-(m-trifluoromethylphenoxy) propylamine] was tested, and the “Concentration in mcg./ml. that blocks 50% of amine uptake, Norepinephrine” value was 8 µg/mL. In the case of `CN(C)CCC(Oc1ccccc1C(F)(F)F)c1ccccc1` (stereo not drawn) [o-trifluoromethylphenyl, N,N-dimethyl 3-(o-trifluoromethylphenoxy)-3-phenylpropylamine], the “Concentration in mcg./ml. that blocks 50% of amine uptake, Norepinephrine” value is reported as 70 µg/mL. `CN(C)CCC(Oc1ccccc1C(C)(C)C)c1ccccc1` (stereo not drawn) [o-t-butylphenyl, N,N-dimethyl 3-phenyl-3-(o-t-butylphenoxy)propylamine] was tested, and the “Concentration in mcg./ml. that blocks 50% of amine uptake, Norepinephrine” value was 1.5 µg/mL. For `CN(C)CCC(Oc1ccc2ccccc2c1)c1ccccc1` (stereo not drawn) [β-naphthyl, N,N-dimethyl 3-(β-naphthyloxy)-3-phenylpropylamine], the “Concentration in mcg./ml. that blocks 50% of amine uptake, Norepinephrine” value was greater than 100 µg/mL. `CCc1ccccc1OC(CCN(C)C)c1ccccc1` (stereo not drawn) [o-ethylphenyl, N,N-dimethyl 3-(o-ethylphenoxy)-3-phenylpropylamine] was tested, and the “Concentration in mcg./ml. that blocks 50% of amine uptake, Norepinephrine” value was greater than 100 µg/mL. In the case of `CCOc1ccccc1OC(CCN(C)C)c1ccccc1` (stereo not drawn) [o-phenetyl, N,N-dimethyl 3-(o-ethoxyphenoxy)-3-phenylpropylamine], the “Concentration in mcg./ml. that blocks 50% of amine uptake, Norepinephrine” value is reported as 3 µg/mL.

What follows are molecules tested on mice (assay: reserpine hypothermia reversal test). Settings: Table 4; mice; 1 mg./kg. intraperitoneally.
Format: in vivo
Method: (§2) The apomorphine hypothermia antagonism test is carried out as follows: mice are injected with a dose of apomorphine known to reduce body temperature approximately 4° C. The compound under test is injected 1/2 hour before the injection of the apomorphine and the temperatures measured 1/2 hour after injection. The degree of antagonism is expressed as a percent reduction (as compared with controls) of the temperature decrease produced by the injection of the apomorphine. The reserpine hypothermia reversal test is carried out as follows: groups of mice are injected with reserpine and 16.5 hours later are injected intraperitoneally with graded doses of the drug, a different dose level being given to each group of mice. Temperatures are measured at 1 hour after injection of the drug under test and again the effectiveness of the drug is expressed as a percentage decrease in the hypothermia induced by the injection of reserpine as compared with the control group. In the tables which follow, Table 4 gives the results in the apomorphine antagonism and reserpine reversal hypothermia tests for the secondary amines of this invention. In the table, the first column gives the substituent attached to the oxygen atom at the 3 position of the propylamine chain; columns 2 to 4 the percent antagonism against apomorphine hypothermia at dose levels of 0.3, 1 and 3 mg./kg. and columns 5-7 the percent reversal of reserpine hypothermia at the same dose levels.
For `CN(C)CCC(Oc1ccccc1C(F)(F)F)c1ccccc1` (stereo not drawn) [o-trifluoromethylphenyl, N,N-dimethyl 3-(o-trifluoromethylphenoxy)-3-phenylpropylamine], the “Percent Antagonism Reserpine Post-60 min.” value was 9%.

Same assay, conditions: Table 4; mice; 3 mg./kg. intraperitoneally
`CN(C)CCC(Oc1ccccc1C(F)(F)F)c1ccccc1` (stereo not drawn) [o-trifluoromethylphenyl, N,N-dimethyl 3-(o-trifluoromethylphenoxy)-3-phenylpropylamine] was tested, and the “Percent Antagonism Reserpine Post-60 min.” value was 8%.

Same assay, conditions: Table 5; mice; 1 mg./kg. intraperitoneally
With `CN(C)CCC(Oc1ccccc1Cl)c1ccccc1` (stereo not drawn) [o-chlorophenyl, N,N-dimethyl 3-(o-chlorophenoxy)-3-phenylpropylamine] the “Percent Antagonism Reserpine Post-60 min.” value was 3%. In the case of `CCc1ccccc1OC(CCN(C)C)c1ccccc1` (stereo not drawn) [o-ethylphenyl, N,N-dimethyl 3-(o-ethylphenoxy)-3-phenylpropylamine], the “Percent Antagonism Reserpine Post-60 min.” value is reported as 17%.

Same assay, conditions: Table 5; mice; 3 mg./kg. intraperitoneally
With `CN(C)CCC(Oc1ccccc1Cl)c1ccccc1` (stereo not drawn) [o-chlorophenyl, N,N-dimethyl 3-(o-chlorophenoxy)-3-phenylpropylamine] the “Percent Antagonism Reserpine Post-60 min.” value was 4%. In the case of `CCc1ccccc1OC(CCN(C)C)c1ccccc1` (stereo not drawn) [o-ethylphenyl, N,N-dimethyl 3-(o-ethylphenoxy)-3-phenylpropylamine], the “Percent Antagonism Reserpine Post-60 min.” value is reported as 13%. For `CCOc1ccccc1OC(CCN(C)C)c1ccccc1` (stereo not drawn) [o-phenetyl, N,N-dimethyl 3-(o-ethoxyphenoxy)-3-phenylpropylamine], the “Percent Antagonism Reserpine Post-60 min.” value was 16%.

Same assay, conditions: Table 5; mice; 10 mg./kg. intraperitoneally
In the case of `CN(C)CCC(Oc1ccccc1Cl)c1ccccc1` (stereo not drawn) [o-chlorophenyl, N,N-dimethyl 3-(o-chlorophenoxy)-3-phenylpropylamine], the “Percent Antagonism Reserpine Post-60 min.” value is reported as 25%. `CN(C)CCC(Oc1ccccc1C(F)(F)F)c1ccccc1` (stereo not drawn) [o-trifluoromethylphenyl, N,N-dimethyl 3-(o-trifluoromethylphenoxy)-3-phenylpropylamine] was tested, and the “Percent Antagonism Reserpine Post-60 min.” value was 10%. In the case of `CCc1ccccc1OC(CCN(C)C)c1ccccc1` (stereo not drawn) [o-ethylphenyl, N,N-dimethyl 3-(o-ethylphenoxy)-3-phenylpropylamine], the “Percent Antagonism Reserpine Post-60 min.” value is reported as 35%. In the case of `CCOc1ccccc1OC(CCN(C)C)c1ccccc1` (stereo not drawn) [o-phenetyl, N,N-dimethyl 3-(o-ethoxyphenoxy)-3-phenylpropylamine], the “Percent Antagonism Reserpine Post-60 min.” value is reported as 40%.

What follows are molecules tested on dopamine uptake by synaptosomes from rat brain (assay: blockage of dopamine uptake by synaptosomes from rat brain). Settings: Table 1, dopamine 0.2 μM.
Format: biochemical
Excerpt: as §1
With `CN(C)CCC(Oc1ccccc1Cl)c1ccccc1` (stereo not drawn) [o-chlorophenyl, N,N-dimethyl 3-(o-chlorophenoxy)-3-phenylpropylamine] the “Concentration in mcg./ml. that blocks 50% of amine uptake, Dopamine” value was “.2 µg/mL”. In the case of `COc1cccc(OC(CCN(C)C)c2ccccc2)c1` (stereo not drawn) [m-methoxyphenyl, N,N-dimethyl 3-phenyl-3-(m-methoxyphenoxy)propylamine], the “Concentration in mcg./ml. that blocks 50% of amine uptake, Dopamine” value is reported as “.5 µg/mL”. In the case of `CN(C)CCC(Oc1cccc(C(F)(F)F)c1)c1ccccc1` (stereo not drawn) [m-trifluoromethylphenyl, N,N-dimethyl 3-phenyl-3-(m-trifluoromethylphenoxy) propylamine], the “Concentration in mcg./ml. that blocks 50% of amine uptake, Dopamine” value is reported as greater than 100 µg/mL. In the case of `CN(C)CCC(Oc1ccccc1C(C)(C)C)c1ccccc1` (stereo not drawn) [o-t-butylphenyl, N,N-dimethyl 3-phenyl-3-(o-t-butylphenoxy)propylamine], the “Concentration in mcg./ml. that blocks 50% of amine uptake, Dopamine” value is reported as greater than 100 µg/mL. `CN(C)CCC(Oc1ccc2ccccc2c1)c1ccccc1` (stereo not drawn) [β-naphthyl, N,N-dimethyl 3-(β-naphthyloxy)-3-phenylpropylamine] was tested, and the “Concentration in mcg./ml. that blocks 50% of amine uptake, Dopamine” value was greater than 100 µg/mL. In the case of `CCc1ccccc1OC(CCN(C)C)c1ccccc1` (stereo not drawn) [o-ethylphenyl, N,N-dimethyl 3-(o-ethylphenoxy)-3-phenylpropylamine], the “Concentration in mcg./ml. that blocks 50% of amine uptake, Dopamine” value is reported as greater than 100 µg/mL. `CCOc1ccccc1OC(CCN(C)C)c1ccccc1` (stereo not drawn) [o-phenetyl, N,N-dimethyl 3-(o-ethoxyphenoxy)-3-phenylpropylamine] was tested, and the “Concentration in mcg./ml. that blocks 50% of amine uptake, Dopamine” value was greater than 100 µg/mL.

Each molecule was assayed on mice (assay: apomorphine hypothermia antagonism test). Settings: Table 4; mice; 1 mg./kg.
Format: in vivo
Method: as §2
`CN(C)CCC(Oc1ccccc1C(F)(F)F)c1ccccc1` (stereo not drawn) [o-trifluoromethylphenyl, N,N-dimethyl 3-(o-trifluoromethylphenoxy)-3-phenylpropylamine] was tested, and the “Percent Antagonism Apomorphine Pre-30 min.” value was 13%.

Same assay, conditions: Table 4; mice; 3 mg./kg.
For `CN(C)CCC(Oc1ccccc1C(F)(F)F)c1ccccc1` (stereo not drawn) [o-trifluoromethylphenyl, N,N-dimethyl 3-(o-trifluoromethylphenoxy)-3-phenylpropylamine], the “Percent Antagonism Apomorphine Pre-30 min.” value was 28%.

Same assay, conditions: Table 5; mice; 1 mg./kg.
With `CN(C)CCC(Oc1ccccc1Cl)c1ccccc1` (stereo not drawn) [o-chlorophenyl, N,N-dimethyl 3-(o-chlorophenoxy)-3-phenylpropylamine] the “Percent Antagonism Apomorphine Pre-30 min.” value was -10%. In the case of `CN(C)CCC(Oc1ccccc1C(F)(F)F)c1ccccc1` (stereo not drawn) [o-trifluoromethylphenyl, N,N-dimethyl 3-(o-trifluoromethylphenoxy)-3-phenylpropylamine], the “Percent Antagonism Apomorphine Pre-30 min.” value is reported as 21%.

Same assay, conditions: Table 5; mice; 3 mg./kg.
In the case of `CN(C)CCC(Oc1ccccc1Cl)c1ccccc1` (stereo not drawn) [o-chlorophenyl, N,N-dimethyl 3-(o-chlorophenoxy)-3-phenylpropylamine], the “Percent Antagonism Apomorphine Pre-30 min.” value is reported as -17%. With `CN(C)CCC(Oc1ccccc1C(F)(F)F)c1ccccc1` (stereo not drawn) [o-trifluoromethylphenyl, N,N-dimethyl 3-(o-trifluoromethylphenoxy)-3-phenylpropylamine] the “Percent Antagonism Apomorphine Pre-30 min.” value was 32%. In the case of `CCc1ccccc1OC(CCN(C)C)c1ccccc1` (stereo not drawn) [o-ethylphenyl, N,N-dimethyl 3-(o-ethylphenoxy)-3-phenylpropylamine], the “Percent Antagonism Apomorphine Pre-30 min.” value is reported as 20%. With `CCOc1ccccc1OC(CCN(C)C)c1ccccc1` (stereo not drawn) [o-phenetyl, N,N-dimethyl 3-(o-ethoxyphenoxy)-3-phenylpropylamine] the “Percent Antagonism Apomorphine Pre-30 min.” value was 13%.

Same assay, conditions: Table 5; mice; 10 mg./kg.
For `CN(C)CCC(Oc1ccccc1Cl)c1ccccc1` (stereo not drawn) [o-chlorophenyl, N,N-dimethyl 3-(o-chlorophenoxy)-3-phenylpropylamine], the “Percent Antagonism Apomorphine Pre-30 min.” value was 57%. In the case of `CN(C)CCC(Oc1ccccc1C(F)(F)F)c1ccccc1` (stereo not drawn) [o-trifluoromethylphenyl, N,N-dimethyl 3-(o-trifluoromethylphenoxy)-3-phenylpropylamine], the “Percent Antagonism Apomorphine Pre-30 min.” value is reported as 55%. In the case of `CCc1ccccc1OC(CCN(C)C)c1ccccc1` (stereo not drawn) [o-ethylphenyl, N,N-dimethyl 3-(o-ethylphenoxy)-3-phenylpropylamine], the “Percent Antagonism Apomorphine Pre-30 min.” value is reported as 74%. With `CCOc1ccccc1OC(CCN(C)C)c1ccccc1` (stereo not drawn) [o-phenetyl, N,N-dimethyl 3-(o-ethoxyphenoxy)-3-phenylpropylamine] the “Percent Antagonism Apomorphine Pre-30 min.” value was 76%.

Each molecule was assayed on serotonin uptake by synaptosomes from rat brain (assay: blockage of serotonin uptake by synaptosomes from rat brain). Settings: Table 1, serotonin 0.1 μM.
Format: biochemical
Excerpt: In the tables, column 1 gives the R substituent on the 3-phenylpropylamine and columns 2-4, the concentration in micrograms per ml. that blocks the uptake of a particular amine by 50 percent for the amines--norephinephrine, serotonin, and dopamine. At the head of each column is given the concentration of the particular monoamine used in the experiment.
With `Cc1cccc(OC(CCN(C)C)c2ccccc2)c1` (stereo not drawn) [m-tolyl, N,N-dimethyl 3-phenyl-3-(m-tolyloxy)propylamine] the “Concentration in mcg./ml. that blocks 50% of amine uptake, Serotonin” value was “.7 µg/mL”. In the case of `CN(C)CCC(Oc1ccccc1Cl)c1ccccc1` (stereo not drawn) [o-chlorophenyl, N,N-dimethyl 3-(o-chlorophenoxy)-3-phenylpropylamine], the “Concentration in mcg./ml. that blocks 50% of amine uptake, Serotonin” value is reported as “.2 µg/mL”. `COc1cccc(OC(CCN(C)C)c2ccccc2)c1` (stereo not drawn) [m-methoxyphenyl, N,N-dimethyl 3-phenyl-3-(m-methoxyphenoxy)propylamine] was tested, and the “Concentration in mcg./ml. that blocks 50% of amine uptake, Serotonin” value was “.08 µg/mL”. `CN(C)CCC(Oc1cccc(C(F)(F)F)c1)c1ccccc1` (stereo not drawn) [m-trifluoromethylphenyl, N,N-dimethyl 3-phenyl-3-(m-trifluoromethylphenoxy) propylamine] was tested, and the “Concentration in mcg./ml. that blocks 50% of amine uptake, Serotonin” value was “.18 µg/mL”. `CN(C)CCC(Oc1ccccc1C(F)(F)F)c1ccccc1` (stereo not drawn) [o-trifluoromethylphenyl, N,N-dimethyl 3-(o-trifluoromethylphenoxy)-3-phenylpropylamine] was tested, and the “Concentration in mcg./ml. that blocks 50% of amine uptake, Serotonin” value was “.16 µg/mL”. For `CN(C)CCC(Oc1ccccc1C(C)(C)C)c1ccccc1` (stereo not drawn) [o-t-butylphenyl, N,N-dimethyl 3-phenyl-3-(o-t-butylphenoxy)propylamine], the “Concentration in mcg./ml. that blocks 50% of amine uptake, Serotonin” value was 40 µg/mL. With `CN(C)CCC(Oc1ccc2ccccc2c1)c1ccccc1` (stereo not drawn) [β-naphthyl, N,N-dimethyl 3-(β-naphthyloxy)-3-phenylpropylamine] the “Concentration in mcg./ml. that blocks 50% of amine uptake, Serotonin” value was 1 µg/mL. For `CCc1ccccc1OC(CCN(C)C)c1ccccc1` (stereo not drawn) [o-ethylphenyl, N,N-dimethyl 3-(o-ethylphenoxy)-3-phenylpropylamine], the “Concentration in mcg./ml. that blocks 50% of amine uptake, Serotonin” value was 3.5 µg/mL. `CCOc1ccccc1OC(CCN(C)C)c1ccccc1` (stereo not drawn) [o-phenetyl, N,N-dimethyl 3-(o-ethoxyphenoxy)-3-phenylpropylamine] was tested, and the “Concentration in mcg./ml. that blocks 50% of amine uptake, Serotonin” value was 6 µg/mL.
